Source: article PMC6538516 (Journal of Veterinary Science, 2019)
Where two headings read alike, the source gives them in different places. Blank lines part the entries; values can stand above or below the compound they belong to.

What was measured:
[1] = Pharmacokinetics of p-acetaminophen in Bactrian camels, substrate only; format: in vivo, Bactrian camel; settings: Group 1, substrate only, 4 mg/kg intramuscular
CYP1A enzyme = format: in vivo, Bactrian camel; settings: Group 2, inhibitor (lomefloxacin) + substrate; p-acetaminophen 4 mg/kg intramuscular
[2] = p-acetaminophen injected into porcine animals; ref 7 (Qiu et al.); cited from earlier work
[3] = healthy cattle, oral administration; ref 8 (Sawaguchi et al.); cited from earlier work
[4] = rats, intramuscular injection; ref 9 (Yamasaki et al.); cited from earlier work
CYP1A = settings: hepatic microsomes from Beagles; ref 13 (Regmi et al.); cited from earlier work
[5] = humans; ref 14 (Wijnands et al.); cited from earlier work

Vd (volume of distribution under steady-state) [1]: 4,416.8 ± 138.23 mL/kg | AUC0-t ([1]; plasma): 5.73 ± 0.31 µg·h/mL | AUC0-∞ ([1]; plasma): 6.01 ± 0.63 µg·h/mL | Cmax ([1]; plasma): 0.96 ± 0.43 µg/mL | Tmax ([1]; plasma): 1.70 ± 0.51 h | AUC0-t (CYP1A enzyme): 8.88 ± 0.23 µg·h/mL | AUC0-∞ (CYP1A enzyme): 9.15 ± 0.63 µg·h/mL | Cmax (CYP1A enzyme): 1.22 ± 0.66 µg/mL | Tmax (CYP1A enzyme): 50 ± 22.2 min | Vd (volume of distribution under steady-state) (CYP1A enzyme): 3,934.0 ± 90.03 mL/kg
SMILES: CC(=O)Nc1ccc(O)cc1 [p-acetaminophen]
AUC0-t [2]: 23.95 ± 6.98 µg·h/mL | T1/2 [2]: 1.76 ± 0.91 h | Tmax [2]: 24.6 ± 7.8 min | MRT [3]: 4.70 ± 0.93 h | T1/2 [3]: 2.41 ± 0.58 h | Tmax [3]: 1.40 ± 0.55 h | MRT [4]: 24 ± 1.8 min | T1/2 [4]: 18 ± 1.2 min

SMILES: CCN1CCN(c2cc3c(cc2F)c(=O)c(C(=O)O)cn3C2CC2)CC1 [enrofloxacin]
CYP1A-inhibiting effect (CYP1A): inhibited CYP1A in a non-competitive manner

SMILES: CCn1cc(C(=O)O)c(=O)c2cc(F)c(N3CCNCC3)cc21 [norfloxacin]
CYP1A-inhibiting effect (CYP1A): inhibited CYP1A in a non-competitive manner

SMILES: C[C@@H]1CN(c2c(F)c(F)c3c(=O)c(C(=O)O)cn(C4CC4)c3c2F)C[C@H](C)N1 [orbifloxacin]
CYP1A-inhibiting effect (CYP1A): inhibited CYP1A in a non-competitive manner

SMILES: CCn1cc(C(=O)O)c(=O)c2cc(F)c(N3CCNCC3)nc21 [enoxacin]
effect on total body clearance of theophylline [5]: significantly decreased

SMILES: CC1COc2c(N3CCN(C)CC3)c(F)cc3c(=O)c(C(=O)O)cn1c23 (centres unmarked) [ofloxacin]
CYP1A-inhibiting effect (CYP1A): inhibited CYP1A in a non-competitive manner
